Data: US20230390267A1, “TREATMENT REGIMENS FOR EARLY IDIOPATHIC PARKINSON'S DISEASE” (BIAL - PORTELA & CA., S.A., priority 2020, published 2023)
Where two headings read alike, the source gives them in different places.

Experiments:
[1] = system: patients with early idiopathic Parkinson's disease treated with levodopa/DDCI, with no signs of motor complications; experiment: EPSILON Phase III double-blind placebo-controlled study, efficacy; type: in vivo, human
Text: The primary endpoint was the change from baseline to end of double-blind period in MDS-UPDRS Part III (motor) scores, and secondary outcomes assessed non-motor symptoms, quality of life and global clinical impressions of change.
Subjects were between 30 and 80 years of age, inclusive, diagnosed with early idiopathic Parkinson's disease according to the United Kingdom Parkinson's Disease Society Brain Bank Clinical Diagnostic Criteria within the previous 5 years, with disease severity stage 1-2.5 (according to modified Hoehn & Yahr staging) and a MDS-UPDRS Part III score>20. Alternatively, the subjects were diagnosed with early idiopathic Parkinson's disease according to the […] within the previous 5 years, with disease severity stage 1-2.5 (according to modified Hoehn & Yahr staging) and a MDS-UPDRS Part III score>20.
322 subjects completed the double-blind phase (FIG. 10).
Study treatment was administered in combination with the subject's existing treatment of levodopa/DDCI.
The primary efficacy parameter, change from baseline (Visit 2) in MDS-UPDRS Part III total score at the end of the double-blind period (Visit 9), was analyzed using a Mixed Model Repeated Measures (MMRM) approach with fixed effects for baseline, center/country, (randomized) treatment, visit, treatment by visit interaction and baseline by visit interaction, and subject as a random effect. Difference between treatment groups (opicapone versus placebo) was estimated from the model.
A similar MMRM analysis used for the primary endpoint was used for relevant secondary efficacy endpoints in the double-blind period. The secondary endpoints included: • Change from baseline (Visit 2) to post-baseline visits during the double-blind trial in: • MDS-UPDRS scores: Parts I, II, III and IV, and Part II+III total • Modified Hoehn & Yahr staging total score during maximum ‘ON’ response • Schwab and England scale score • Parkinson's Disease Sleep Scale 2 (PDSS-2) total score • MDS-Non-motor Symptom Scale (MDS-NMSS) total and subdomain scores • Parkinson's Disease Questionnaire (PDQ-39) total and subdomain scores • 9-item Wearing-off questionnaire (WOQ9) total and sub-section (motor and non-motor) scores • Clinical Global Impression of Improvement (CGI-I) • Patient's Global Impression of Improvement (PGI-I)
The proportion of subjects with an improvement from baseline in CGI-I (preferably relative to before the beginning of treatment) and PGI-I (preferably relative to their admission to the study) scores at the end of the double blind period (Visit 9) endpoint was analysed using logistic regression, with (randomized) treatment included in the model.

erythrocyte COMT = settings: cynomolgus monkey; cited from earlier work
[2] = system: PD patients with motor fluctuations; settings: cited from earlier work; for mean treatment effect versus placebo on absolute daily OFF-time: double-blind
[3] = system: PD patients with motor fluctuations; settings: cited from earlier work
[4] = system: PD patients with motor fluctuations; settings: cited from earlier work; remark: listed apart in the source
[5] = system: PD patients with motor fluctuations (Japanese population); settings: p<0.05, cited from earlier work
[6] = adjunct opicapone to levodopa/benserazide, cited from earlier work
[7] = system: patients with early idiopathic Parkinson's disease treated with levodopa/DDCI, with no signs of motor complications; settings: human, in vivo, 24 weeks
Text: The term “treatment-emergent adverse event” is defined as any event not present before exposure to the study drug or any event already present that worsens in either intensity or frequency after first intake of study drug until 2 weeks after last intake of the study drug.
The factors evaluated include: • Treatment-emergent adverse events (TEAEs) including serious adverse events (SAEs) • Laboratory safety tests (biochemistry, hematology, coagulation and urinalysis) • Physical and neurological examinations • Vital signs • 12-lead ECG readings • Columbia-Suicide Severity Rating Scale (C-SSRS) • Modified Minnesota Impulsive Disorders Interview (mMIDI)

[8] = cited from earlier work
[9] = system: MPTP treated parkinsonian primates; settings: in vivo; cited from earlier work

Cc1c(Cl)c(C)[n+]([O-])c(Cl)c1-c1noc(-c2cc(O)c(O)c([N+](=O)[O-])c2)n1 [opicapone, 2,5-dichloro-3-[5-(3,4-dihydroxy-5-nitrophenyl)-1,2,4-oxadiazol-3-yl]-4,6-dimethylpyridine 1-oxide]
PDSS-2 total score, Change from Baseline, Mean ([1]; OPC 50 mg, baseline to week 24): −0.4
symptomatic reduction in MDS-UPDRS Part III total score compared to placebo ([1]; baseline to end of double-blind period, p=0.010): 2.2 points
symptomatic reduction in MDS-UPDRS Part II+III total score compared to placebo ([1]; baseline to end of double-blind period, p=0.036): 2.8 points
magnitude of the changes in MDS-UPDRS Part I, MDS-UPDRS Part IV or PDQ-39 total scores ([1]; both groups (opicapone and placebo), double-blind period): less than 0.4 points
NMSS Domain 7 (urinary) subdomain score vs placebo ([1]; especially at Week 12 and Week 24 (p<0.05)): Significant improvements
proportion of patients who reported motor complications ([1]; opicapone 50 mg, end of 24-week double-blind period): 5.5%
proportion of patients reporting an improvement in their clinical condition (PGI-I score) ([1]; opicapone 50 mg, end of double-blind period, p=0.026 vs placebo): 57.9%
proportion of patients with an improvement in clinical condition assessed by a clinician (CGI-I score) ([1]; opicapone 50 mg, end of double-blind period, p=0.493 vs placebo): 50.3%
WOQ-9: proportion of subjects whose dexterity improved post-study medication ([1]; opicapone treated group): 56.6%
WOQ-9: proportion of subjects whose muscle cramping improved post-study medication ([1]; opicapone treated group): 28.3%
WOQ-9: proportion of subjects whose slowness of movement improved post-study medication ([1]; opicapone treated group): 66.2%
WOQ-9: proportion of subjects whose stiffness improved post-study medication ([1]; opicapone treated group): 56.9%
WOQ-9: proportion of subjects whose tremors improved post-study medication ([1]; opicapone treated group): 65.5%
reduction in erythrocyte COMT activity (erythrocyte COMT): ≤ 85%
OFF-time change from baseline at the end of the open-label phase ([2]; group that switched from placebo to opicapone): 114.7 min
mean treatment effect versus placebo on absolute daily OFF-time ([2]; opicapone 25 mg, p=0.0106): -35.1 min
OFF-time change from baseline at the end of the open-label phase ([2]; opicapone 50 mg throughout double-blind and open-label treatment): -141.1 min
mean treatment effect versus placebo on absolute daily OFF-time ([2]; opicapone 50 mg, p<0.0001): -58.1 min
placebo-adjusted reduction of OFF time ([2]; opicapone 50 mg, onset of motor fluctuations within the previous 2 years, p=0.0003): -68.5 min
placebo-adjusted mean reduction of OFF time ([2]; opicapone 50 mg, patients only taking levodopa at baseline, p=0.02): -65.6 min
placebo-adjusted reduction of OFF time ([2]; opicapone 50 mg, patients taking less than 600 mg of levodopa per day, p=0.0005): -75.5 min
treatment difference in OFF time for opicapone 50 mg versus entacapone ([3]; p=0.05): 26.2 min
additional OFF-time reduction after switch from entacapone ([3]; patients that ended open-label with opicapone 50 mg): 68 min
patients who reported they were improved ([4]; 3 months): 76.9%
patients judged as having worsened ([4]; UK patients (n=95), 6 months): 6.4%
patients judged as improved since commencing treatment ([4]; UK patients (n=95), 6 months): 85.3%
patients judged as showing 'no change' ([4]; UK patients (n=95), 6 months): 8.4%
patients much improved ([4]; UK patients (n=95), 6 months): 49.4%
patients very much improved ([4]; UK patients (n=95), 6 months): 8.4%
patients reported as much or very much improved (CGI-C) ([4]; opicapone 50 mg, 3 months): 43%
patients showing clinical improvement as judged by the investigators (CGI-C) ([4]; opicapone 50 mg, 3 months): 71.3%
improvement in UPDRS ADL score ([4]; opicapone adjunct therapy): 3.0 points
improvement in UPDRS motor score ([4]; opicapone adjunct therapy): 4.6 points
mean±SD improvement in NMSS sleep/fatigue score versus baseline ([4]; p<0.0001): −1.3+6.3 points
mean±SD improvement in NMSS total score versus baseline ([4]; p<0.0001): −6.8±19.7 points
placebo adjusted reduction in OFF time ([5]; opicapone 25 mg dose group): -0.74 h
placebo adjusted reduction in OFF time ([5]; opicapone 50 mg dose): -0.62 h
increase of levodopa systemic exposure ([6]; Cmax not changed): 2 fold
reduction of 3-O-methyldopa (3-OMD) exposure and Cmax [6]: up to 7 fold
TEAE COVID-19; % [7]: (8.5) %
TEAE COVID-19; n [7]: 15
increase of minimum plasma concentration (Cmin) for individual levodopa doses ([8]; human, in vivo): up to 2.6 fold
effect on levodopa systemic exposure and peak-to-trough fluctuations ([8]; once daily opicapone 50 mg, levodopa given every 3 and 4 hours): increased systemic exposure to levodopa
motor function in MPTP treated parkinsonian primates [9]: improvement in motor function
